Data: PMC3925156, “Β-Amylase from Starchless Seeds of Trigonella Foenum-Graecum and Its Localization in Germinating Seeds” (PLoS ONE, 2014)

Target: T1, Fenugreek β-amylase
T1 construct: gene BMY1; native, purified from ungerminated seeds (acetone, DEAE-cellulose, glycogen precipitation)
Test: starch hydrolysis assay, Dixon plot
Format: biochemical, Trigonella foenum-graecum
Settings: competitive; starch substrate, pH 5.0, 30°C, 10 min preincubation

Row | Ki [mM] | SMILES
1 | 2.32 | OC[C@H]1O[C@@](CO)(O[C@H]2O[C@H](CO)[C@@H](O)[C@H](O)[C@H]2O)[C@@H](O)[C@@H]1O [sucrose]
2 | 3.97 | OC[C@H]1O[C@@H]2O[C@H]3[C@H](O)[C@@H](O)[C@@H](O[C@H]4[C@H](O)[C@@H](O)[C@@H](O[C@H]5[C@H](O)[C@@H](O)[C@@H](O[C@H]6[C@H](O)[C@@H](O)[C@@H](O[C@H]7[C@H](O)[C@@H](O)[C@@H](O[C@H]1[C@H](O)[C@H]2O)O[C@@H]7CO)O[C@@H]6CO)O[C@@H]5CO)O[C@@H]4CO)O[C@@H]3CO [α-cyclodextrin]
